In the COVID Moonshot data (paper PMC11187573), “Identification of SARS-CoV-2 Mpro inhibitors through deep reinforcement learning for de novo drug design and computational chemistry approaches” (RSC Medicinal Chemistry, 2024):
pIC50: −log10 of the molar value.

Columns and labels:
[1] = molecular target: SARS-CoV-2 Main Protease (SARS-CoV-2) (UniProt P0DTD1)
[2] = molecular target: SARS-CoV-2 Main Protease (SARS-CoV-2) (UniProt P0DTD1); remark: listed apart in the source
Experimental: Briefly, compounds were seeded into assay-ready plates (Greiner 384PP, cat# 781280) using an ECHO 650T dispenser and DMSO was back-filled for a uniform concentration in assay plates (DMSO concentration < 1%, final volume = 500 nL.). […] After a quick centrifugation step (1000 rpm, 15 s) the plate is incubated for 15 min at room temperature. […] After centrifugation (1000 rpm, 14 s) the reaction is incubated for 10 min (11-mer) or 5 min (37-mer) at room temperature before quenching with 10 % formic acid. The reactions are analysed with MS using RapidFire (RF) 365 high-throughput sampling robot (Agilent) connected to an iFunnel Agilent 6550 accurate mass quadrupole time-of-flight (Q-TOF) mass spectrometer using electrospray. […] Dose response curves uses an 11-point range of 100--0.0017 µM inhibitor concentrations. RapidFire integrator software (Agilent) was used to extract the charged states from the total ion chromatogram data followed by peak integration. For the 11-mer peptide the m/z (+1) charge states of both the substrate (1191.67 Da) and cleaved N-terminal product TSAVLQ (617.34 Da) were used and the 37-mer peptide the m/z (+2) charge states of the substrate (3960.94 Da) and m/z (+1) of the cleaved C-terminal product [sequence] (1125.57 Da). Percentage conversion (product peak integral / (product peak integral + substrate peak integral))*100) and percentage inhibitions were calculated and normalised against DMSO control with deduction of any background signal in Microsoft Excel. IC50s were calculated using Levenberg–Marquardt algorithm used to fit a restrained Hill equation to the dose-response data with both GraphPad PRISM and CDD.

SMILES | inhibition ([1]; 20.0 µM) [%] | inhibition ([1]; 50.0 µM) [%] | inhibition ([2]; 50.0 µM) [%] | relative solubility at 20 uM | relative solubility at 100 uM | inhibition ([2]; 20.0 µM) [%] | pIC50 [2]
COc1cccc2c1OCC(NC(=O)c1cc(=O)[nH]c3ccc(F)cc13)C2 (centres undefined) | 2.25 | 19 | 11 | 0.96 | 0.81 |  | 
Cc1nnn(C)c1NC(=O)Cc1cccc(Cl)c1 | -9.24 | -12.3 | 5.47 | 1 | 1 |  | 
C=CC(=O)N(C1CCCC(C(C)C)CC1)C(C(=O)NC(C)(C)C)c1cccnc1 (centres undefined) | -1.08 | 8.24 |  | 0.99 | 0.95 | 0 | 
COc1cc(Cl)cc(OC(=O)Nc2cccnc2)c1 |  |  |  | 1 | 1 |  | 
C=CC(=O)N(c1ccc(C(C)(C)C)cc1)C(C(=O)NCc1ccc(F)cc1)c1cccnc1 (centres undefined) | 51.2 | 76.4 | 100 | 0.98 | 0.66 | 79.3 | 4.98
Cc1cc(C)cc(CS(=O)(=O)N[C@@]23COC[C@@H]2C3)c1 (stereo in doubt) | 6.03 | -9.38 | 0 | 1 | 1 |  | 
O=C(Nc1ccc(N(Cc2ccsc2)C(=O)Cn2nnc3ccccc32)cc1)C1CC1 | 69 | 70.2 | 62.2 | 0.9 | 0.59 |  | 4.55
O=C(Cc1cncnc1)Nc1cccc(CCCc2ccccc2)c1 | 1.12 | 10.1 | 0 | 0.96 | 0.94 | 0 | 
Cc1ncncc1NC(=O)C(c1cccc(Cl)c1)C(C)C (centres undefined) | 3.52 | 20.6 | 46.5 | 1 | 0.99 |  | 
COc1ccccc1OC(C)CNC(=O)c1cc(=O)[nH]c2cc(F)ccc12 (centres undefined) | 20 | 59 | 5.65 | 1 | 0.99 |  | 
CC(=O)N1CCN(Cc2cccc(C#N)c2)CC1 | -0.339 | 6.59 |  | 1 | 0.99 | 0 | 
CC(=O)N[C@@H](Cc1ccc(O)cc1)C(=O)NCc1ccc(Br)cc1 (stereo in doubt) | -20.1 | -24.8 |  | 1 | 0.99 | 0 | 
Cc1ccc(NC(=O)C(C#N)C(=O)CC(C)C)cc1 (centres undefined) |  | 21.5 | 0 | 0.99 | 1 | 3.11 | 
O=C(CCl)N1CCN(S(=O)(=O)c2cccs2)CC1 | 99.3 | 99.6 | 97.8 | 1 | 1 | 97.9 | 6.25
CNC(=O)OC1CCN(C(=O)c2ccccc2)CC1 |  | 19.2 | 0 | 1 | 1 | 0 | 
COc1ccccc1OCCNC(=O)c1cc(=O)[nH]c2cc(F)ccc12 | -6.6 | 51.7 | 9.64 | 0.88 | 0.66 |  | 
C=CC(=O)N(c1ccc(C(C)(C)C)cc1)C(C(=O)NC)c1cccnc1 (centres undefined) | 42.1 | 69.7 | 100 | 1.01 | 0.99 | 57.4 | 4.77
O=C(Cc1cccc(Cl)c1)Nc1nncs1 | -9.94 | -3.05 | 0 | 1 | 0.78 |  | 

SMILES | inhibition ([1]; 20.0 µM) [%] | inhibition ([1]; 50.0 µM) [%] | inhibition ([2]; 50.0 µM) [%] | relative solubility at 20 uM | relative solubility at 100 uM | inhibition ([2]; 20.0 µM) [%] | pIC50 [2]
Cc1cccc(NC(=O)Cn2c(=O)oc3ccccc32)c1 | -20.4 | -5.83 | -9.03 | 0.99 | 0.94 |  | 
CNS(=O)(=O)Cc1ccc2[nH]cc(CCN(C)C)c2c1 | 4.66 | 2.38 |  | 1 | 1 | 0 | 
C=CC(=O)Nc1cc(C(=O)NC[C@H](Cc2ccccc2)c2ccccn2)ccc1O (stereo in doubt) | 0.684 | 9.48 |  | 0.83 | 0.82 | 0 | 
Cc1ccncc1NC(=O)Cc1cccc(F)c1 | 39.6 | 65.3 | 40.9 | 1.01 | 1 |  | 
CC(=O)NCCc1c[nH]c2c(CN3CCN(C(=O)CCl)CC3)cccc12 | 62.8 | 85.7 | 100 | 0.95 | 0.95 |  | 4.94
CCOC(=O)c1nc(S(C)(=O)=O)ncc1Cl | 96.9 | 98.5 | 100 | 0.99 | 0.99 |  | 5.98
O=C1CC(Oc2cccc(C(=O)NCc3cncnc3)c2)N1 (centres undefined) | 21.6 | 25.1 | 28.1 | 1 | 1 |  | 
CS(=O)(=O)Nc1cccc(C(=O)OCC(=O)Nc2cccc(N3CCCC3=O)c2)c1 | 5.16 | 3.7 | 0 | 0.98 | 0.99 |  | 
O=C(Cc1c[nH]c2ncccc12)NCc1ccc(Cl)cc1 | 2.99 | 3.45 |  | 1 | 0.95 | 0 | 
CN(CC1COc2ccccc2O1)C(=O)c1cc(=O)[nH]c2cc(F)ccc12 (centres undefined) | -3.67 | 15.3 | 0 | 0.98 | 0.99 |  | 
Cc1cccc(NC(=O)C(C#N)C(=O)C2CC2)c1 (centres undefined) |  | 5.88 | 0.517 | 0.99 | 0.99 | 0.422 | 
O=C(Cc1cccnc1Br)Nc1cccc(OCCn2cncn2)c1 |  | -21.7 | 0 | 1 | 1 | 0 | 
CC1(C)Cc2cccc(OCCNC(=O)c3cc(=O)[nH]c4ccc(Cl)cc34)c2O1 | 5.99 | 28.8 | 18.7 | 0.97 | 0.91 |  | 
CC(=O)N1CCN(CC(=O)Nc2cccc(S(N)(=O)=O)c2)CC1 | -3.12 | 2.63 |  | 1 | 1 | 0 | 
O=C(CC(=O)N1CCOCC1)NCc1ccccc1 | -1.44 | 15.1 | 0 | 0.99 | 1 | 0 | 
O=C1CC(c2cccc(NC(=O)Cc3cncnc3)c2)CN1 (centres undefined) | 3.83 | 10.8 | 0 | 1 | 1 |  | 
C=CC(=O)N(c1ccc(C(C)(C)C)cc1)C(C(=O)NC(C)(C)C)c1cccnc1C (centres undefined) | -1.34 | 2.24 | 0 | 0.99 | 0.99 | 0 | 
